According to the NIST ThermoML archive (doi:10.1021/acs.jced.8b00165):
Numbers after ± are expanded uncertainties.

Settings: Crystal; DTA

Normal melting temperature: 117.00 ± 1.1 °C
Structure (SMILES): CNC(=O)c1cc(Oc2ccc(N)cc2)ccn1 [4-(4-aminophenoxy)-N-methylpyridine-2-carboxamide]
